Measurements reported in publication PMC4167557 (Nanomedicine (London, England), 2014).
Bridges are numbered along the chain shown (N, C = ends). Where no end group is shown, it is not given here.

Experiments:
[1] = system: Caspase 3/7 in heart tissues; assay: Caspase-Glo 3/7 assay in heart tissue; assay type: in vivo; conditions: 25 mg/kg, 5 days after treatment
[2] = system: plasma creatine kinase MB isoenzyme; assay: Plasma CK-MB ELISA; assay type: in vivo; conditions: mice, single dose DNR 15 mg/kg
[3] = Pharmacokinetics in rats after single intravenous injection; assay type: in vivo, Sprague–Dawley rats
K562-CLL1 xenograft = assay: Efficacy in mice bearing K562-CLL1 xenograft; assay type: in vivo, nude mice; conditions: 10 mg/kg every 3 days
[4] = system: vital organs (heart, liver, spleen, lung, kidney); assay: Histological analysis of organ toxicity; assay type: in vivo; conditions: mice, 5 days after treatment
[5] = Pharmacokinetics in mice after single intravenous injection; assay type: in vivo, BALB/c mice
[6] = system: plasma cardiac troponin T (cTnT); assay: Plasma cardiac troponin T ELISA; assay type: in vivo; conditions: single dose DNR 15 mg/kg
CLL1-expressing cells = conditions: therapeutic concentration of approximately 4 µM ref 8; cited from earlier work
[7] = Sprague-Dawley, rat, plasma, iv, 5 mg/kg
[8] = rats, 5 mg/kg DNR iv, mean ± SD
[9] = BALB/c, mouse, plasma, iv, 10 mg/kg
[10] = mice, 10 mg/kg DNR iv, mean ± SD

COc1cccc2c1C(=O)c1c(O)c3c(c(O)c1C2=O)C[C@@](O)(C(C)=O)C[C@@H]3O[C@H]1C[C@H](N)[C@H](O)[C@H](C)O1 [Free DNR, daunorubicin]
caspase 3/7 activity in cardiac tissue relative to control mice treated with PBS [1]: about 3.46 times
plasma CK-MB level ([2]; 3 h after dosing): 60.02 ± 4.05 U/l
plasma CK-MB level ([2]; 5 days of follow-up): 113.98 ± 10.42 U/l
AUC(0-t) [3, 7]: 3600 ± 790 ng·h/mL
Cmax [3, 7]: 1910 ± 260 ng/mL
MRT [3, 7]: 36.2 ± 6.51 h
Vd [3, 7]: 50.8 L/kg
clearance [3, 7]: 23.7 ± 5.2 mL/min/kg
half-life ([3]; Sprague-Dawley, rat, plasma, iv, 5 mg/kg, T 1/2β, rats, 5 mg/kg DNR iv): 1520 ± 272 min
T 1/2α ([3]; rats, 5 mg/kg DNR iv): 0.94 ± 0.00 min
Kel [3, 8]: 0.01 ± 0.00
α [3, 8]: 0.74 ± 0.00 min⁻¹
β [3, 8]: 0.00 ± 0.00 min⁻¹
overall survival (K562-CLL1 xenograft): 44 days
histopathological changes in cardiac tissue ([4]; 25 mg/kg): marked myocardial toxicity
histopathological changes in spleen ([4]; low- or high-dose (5 and 25 mg/kg)): Marked red pulp hemorrhage-associated compensative sinusoidal histocytic proliferation and extramedullary hematopoiesis
AUC(0-t) [5, 9]: 836 ± 151 µg·h/mL
Cmax [5, 9]: 961 ± 92 µg/mL
MRT [5, 9]: 16.7 h
Vd [5, 9]: 0.205 ± 0.048 L/kg
clearance [5, 9]: 0.2 ± 0.03 mL/min/kg
concentration at 24 h [5, 9]: 13600 ± 1920 ng/mL
half-life ([5]; BALB/c, mouse, plasma, iv, 10 mg/kg, T 1/2β, mice, 10 mg/kg DNR iv): 714 ± 60 min
T 1/2α ([5]; mice, 10 mg/kg DNR iv, initial half-life in plasma): 1.11 ± 0.04 min
Kel [5, 10]: 3.68 ± 6.35
α [5, 10]: 0.63 ± 0.02 min⁻¹
β [5, 10]: 0.0001 min⁻¹
cTnT level relative to control mice ([6]; 1 day after dosing): 9.15 times
cTnT level relative to control mice ([6]; 3 days (peak)): 15.8 times

CLL1-targeting ligand: CLL1-targeting peptide (amino acid sequence: CDLRSAAVC), cyclized via disulfide (disulfide 1-9 (inferred))
increase of micelle-mediated drug delivery to CLL1-expressing cells (CLL1-expressing cells): approximately threefold
